In test [1] the target is T1, N-terminal RIα deletion mutants (Bos taurus, UniProt P00514, A98S).
T1 construct: made in house; host or cells: E. coli BL21 (B121 [sic])
The test is described as follows: R-overlay with N-terminal RIα deletion mutants. The test is classed as binding. The protocol: (§1) R-overlay. R-overlays were conducted as described, using ^32P-labeled recombinant murine RII (Hausken, Z. E., et al., 1998 in Protein Targeting Protocols, ed. Clegg, R. A. (Humana, Totowa, N.J.), Vol. 88, pp. 47-64) or recombinant bovine RI (A98S) or by cold RI-overlay where bound RIα was detected by Western blot. Cold RI-overlay was performed by incubating the membranes with 250 nM RI overnight at 4° C., then the membranes were washed five times in TBST for 5 min. Detection of RI was performed using an anti-RI rabbit polyclonal antibody (Santa Cruz) at a concentration of 0.2 μg/μl for 1 hour at 4° C. Then the membranes were washed five times for 5 minutes in PBS followed by incubation with HRP-conjugated anti-rabbit IgGs (1:5000) for 1 hour at 4° C. The membranes were washed in PBS as described above before detection by Supersignal West Dura Extended Duration Substrate (Pierce).
(§2) Constructs and mutagenesis. […]
(§3) MEME3 and SM3 (scrambled negative control peptide) were cloned by preferred codon usage (Haas et al., 1996, Current Biol., 6:315-324) and with an N-terminal GFP-fusion. Lysate from transfected HEK293 cells (FIG. 10, left panel in A) and MEME3 synthesized on membrane (right panel in A) were analysed for R binding by RIα-^32P-overlay and RIIα-^32P overlay. […]

Test [2] deals with N-terminal RIα deletion mutants. The test is described as follows: R-overlay with N-terminal RIα deletion mutants. The test is classed as binding. The following applies: compared with RIα. How it is done:
as §1, §2, §3

Test [3] deals with PKA-RIIα (Homo sapiens, UniProt P13861). The test is described as follows: Immunofluorescence of PKA-RIIα at centrosomes in human T cells. The format is cell-based. On the set-up: endogenous in cells; host or cells: human peripheral blood CD3+ T cells. The following applies: human peripheral blood T cells. How it is done: Blots were developed by using Supersignal West Pico substrate (Pierce). For immunofluorescence polyclonal and monoclonal antibodies against RIα (Biogenesis), RIIα (Transduction laboratories) and AKAP450 (A24, Tasken et al., 2001, J. Biol. Chem, 276:21999-22002) were used as primary antibodies. Secondary antibodies (all Molecular Probes) were Alexa-488 conjugated anti-mouse and anti-rabbit IgG (both goat) and Alexa-555 anti-rabbit IgG (goat).
Immunofluorescence analysis of cells was performed as previously described (Collas, P. et al., 1996, J. Cell Biol. 135, 1715-1725). RI was detected by using an anti-RI monoclonal antibody (Transduction Laboratories) as a primary antibody at a […] and Alexa-488 as a secondary antibody (1:600, Goat anti Mouse IgGs, Molecular Probes). Immunofluorescence was performed on Y1 cells attached to collagen/fibronectin coated coverslips. Mitochondria were stained using MitoTracker Red CMXRos (Molecular Probes) in fresh medium with incubation at 37° C. for 30 min prior to cell fixation. All cells were washed in PBS, fixed with 3% paraformaldehyde and permeabilised using 0.1% Triton X-100. […] Alternatively, fluorescently labeled cells were examined using a Leica TCS SP1 confocal fluorescence microscope (Leica, Heidelberg, Germany) equipped with an Ar (488 nm) and two He/Ne (543 and 633 nm) laser lines. […]

Test [4] has as its system human peripheral blood T cells. The test is described as follows: IL-2 production assay in T cells (ELISA). The format is cell-based. How it is done:
IL-2 production. T cells were cultured and activated by 10 or 50 μM Sp-8-Br-cAMPs (a cAMP agonist) for 15 minutes before the T cells were activated by anti-CD3/anti-CD28 beads (Dynal) for 20 hours. Cell free supernatants were harvested and stored at −80° C. until analsysed. The IL-2 levels were determined by Elisa (R & D Systems, Europe Ltd., UK):
IL-2 production Assay. Primary T cells were stimulated or not with anti-CD3/anti-CD28 coated beads (Dynal, cat. no. 111.31) for 20 hours, thereafter supernatants were harvested and the concentration of IL-2 was assessed by ELISA (R&D Systems, cat. no D2050). When used, 8-CPT-cAMP was added for 15 minutes before CD3/CD28 treatment.
To examine the effect of MEME3 on cytokine production, IL-2 levels in medium from human peripheral blood T cells treated with MEME3-Arg11 were measured by ELISA. First, cells were treated with MEME3-Arg11 for 12 hours, thereafter the PKA inhibitory pathway was activated by 10 or 50 μM Sp-8-Br-cAMPs (a cAMP agonist) for 15 minutes before the T cells were activated by CD3/CD28 stimulation (FIG. 21).

Chain of PKA-RIIα (P13861 whole entry): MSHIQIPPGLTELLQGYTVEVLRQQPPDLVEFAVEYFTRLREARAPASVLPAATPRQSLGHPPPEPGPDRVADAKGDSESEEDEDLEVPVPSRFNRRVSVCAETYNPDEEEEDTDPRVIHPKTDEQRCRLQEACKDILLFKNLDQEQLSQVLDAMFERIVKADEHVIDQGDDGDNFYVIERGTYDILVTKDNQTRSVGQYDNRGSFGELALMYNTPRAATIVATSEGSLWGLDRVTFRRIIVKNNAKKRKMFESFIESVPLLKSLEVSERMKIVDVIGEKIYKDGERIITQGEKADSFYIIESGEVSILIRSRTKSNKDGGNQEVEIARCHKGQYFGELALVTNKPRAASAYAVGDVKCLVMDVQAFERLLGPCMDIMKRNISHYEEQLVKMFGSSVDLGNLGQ
T1 sequence (P00514 25-380 A98S): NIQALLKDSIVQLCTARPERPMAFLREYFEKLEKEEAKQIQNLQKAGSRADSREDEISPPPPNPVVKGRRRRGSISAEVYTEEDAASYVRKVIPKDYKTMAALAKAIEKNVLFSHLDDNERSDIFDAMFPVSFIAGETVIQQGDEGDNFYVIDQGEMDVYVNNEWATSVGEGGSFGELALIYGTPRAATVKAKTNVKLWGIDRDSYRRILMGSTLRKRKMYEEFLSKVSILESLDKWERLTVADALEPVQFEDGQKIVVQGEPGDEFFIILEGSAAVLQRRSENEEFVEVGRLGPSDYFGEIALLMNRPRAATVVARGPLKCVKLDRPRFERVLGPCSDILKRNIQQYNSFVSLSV

Regarding `CC[C@H](C)[C@H](NC(=O)[C@H](CCC(N)=O)NC(=O)[C@H](CC(=O)O)NC(=O)[C@H](C)NC(=O)[C@H](CC(C)C)NC(=O)[C@H](CCC(N)=O)NC(=O)[C@H](CC(N)=O)NC(=O)[C@H](C)NC(=O)[C@H](Cc1ccc(O)cc1)NC(=O)[C@H](CCC(N)=O)NC(=O)[C@H](CCC(=O)O)NC(=O)[C@@H](N)CC(C)C)C(=O)N[C@H](C(=O)N[C@@H](CCCCN)C(=O)N[C@@H](CCC(=O)O)C(=O)N[C@@H](C)C(=O)N[C@H](C(=O)N[C@@H](CCC(=O)O)C(=O)N[C@@H](CCCCNC(=O)c1ccc2c(c1)C(=O)OC21c2ccc(O)cc2Oc2cc(O)ccc21)C(N)=O)[C@@H](C)O)[C@@H](C)CC` [MEME3], the “binding to RIα (Δ1-24) (overlay)” value in test [1] was “No binding”. In addition, the “binding to RIα (Δ1-11) and RIα (Δ1-15) (overlay)” value in test [2] is recorded as “even higher affinity”.

For the molecule “LEQYANQLADQIIKEATERRRRRRRRRrr [MEME3-Arg11]”, the “displacement of PKA-RIIα from centrosomes” value in test [3] is on record as “no displacement of PKA-RIIα”. For the same molecule, the “increase in IL-2 production” value in test [4] (10 μM, relative to untreated T cells) is listed as 2.5 fold. In addition, the IL-2 levels result in test [4] (12 hours peptide, Sp-8-Br-cAMPs, CD3/CD28 stimulation) was “increased in samples treated with MEME3-Arg11 in a concentration-dependent manner”.

The record behind these values is US20080248008A1, “Inhibitors of Protein Kinase a Anchoring” (priority 2004, published 2008).
